In ChEMBL document CHEMBL2401622, “Synthesis and in vitro evaluation of [18F]BMS-754807: a potential PET ligand for IGF-1R” (Bioorg Med Chem Lett, 2013):

Experiments:
Settings in all cases: 0.0001 µM
[1] = Drug uptake in human pancreatic tumor at 0.1 nM after 1 hr by phosphor imager autoradiography; format: ADME
[2] = Drug uptake in human grade 4 glioblastoma at 0.1 nM after 1 hr by phosphor imager autoradiography; format: ADME
[3] = Drug uptake in human breast tumor at 0.1 nM after 1 hr by phosphor imager autoradiography; format: ADME, tissue-based

Measured: Drug uptake

C[C@@]1(C(=O)Nc2ccc([18F])nc2)CCCN1c1nc(Nc2cc(C3CC3)[nH]n2)c2cccn2n1
Active: [1] | [2] | [3]
